The record followed here is ChEMBL document CHEMBL1127006, “QSAR study of benzoquinolinones as inhibitors of human type 1 5--reductase” (Bioorg Med Chem Lett, 1993).

This experiment deals with T1, 3-oxo-5-alpha-steroid 4-dehydrogenase 1 (Homo sapiens, UniProt P18405).
T1 sequence (P18405 whole entry): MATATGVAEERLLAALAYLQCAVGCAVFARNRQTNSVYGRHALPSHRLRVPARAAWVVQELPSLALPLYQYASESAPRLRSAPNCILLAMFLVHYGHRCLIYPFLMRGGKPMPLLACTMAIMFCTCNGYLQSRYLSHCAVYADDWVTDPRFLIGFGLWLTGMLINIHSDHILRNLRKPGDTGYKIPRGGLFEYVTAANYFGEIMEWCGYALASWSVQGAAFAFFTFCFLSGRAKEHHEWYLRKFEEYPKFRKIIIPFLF
In words: In vitro inhibitory concentration required to inhibit Steroid 5-alpha-reductase type 1 in cultured Hs 68 human foreskin fibroblast cells. The class given is cell-based. As to conditions: read-out: Log 1/IC50 (converted).
`Cc1ccc2c(c1)CCC1C2CCC(=O)N1C` (stereo unspecified): the IC50 is 32.4 nM.
For `CN1C(=O)CCC2(C)c3ccc(F)cc3CCC12` (stereo unspecified), the IC50 was 115 nM.
Under `CN1C(=O)CCC2=C1CCc1cc(F)ccc12` stands 151 nM; under `CN1C(=O)CCC2=C1CCc1ccccc12`, 1000 nM.
For `COc1ccc2c(c1)CCC1C2CCC(=O)N1C` (stereo unspecified), the IC50 is 115 nM.
On to `CN1C(=O)CCC2=C1CCc1cc(Cl)ccc12`, for which the IC50 is 174 nM.
`CN1C(=O)CCC2=C1CCc1cc(Br)ccc12`: the IC50 is 60.3 nM.
Turning to `CN1C(=O)CCC2c3ccccc3CCC21` (stereo unspecified), the IC50 was 562 nM.
Turning to `CN1C(=O)CCC2(C)c3ccccc3CCC12` (stereo unspecified), the IC50 was 1000 nM.
`CN1C(=O)CCC2c3ccc(F)cc3CCC21` (stereo unspecified): the IC50 was 34.7 nM.
Take `CN1C(=O)CCC2c3ccc(Br)cc3CCC21` (stereo unspecified): the IC50 was 34.7 nM.
Take `CN1C(=O)CCC2c3ccc(Cl)cc3CCC21` (stereo unspecified): the IC50 was 7.94 nM.
In the case of `CN1C(=O)CCC2(C)c3ccc(Cl)cc3CCC12` (stereo unspecified) it was 32.4 nM.
Under `Cc1ccc2c(c1)CCC1=C2CCC(=O)N1C` stands 32.4 nM; under `CN1C(=O)CCC2c3ccc(C(F)(F)F)cc3CCC21` (stereo unspecified), 89.1 nM.
Turning to `CN1C(=O)CCC2c3ccc(I)cc3CCC21` (stereo unspecified), the IC50 is 79.4 nM.
